Results reported in publication PMC6193938, “Characterization of a novel AICARFT inhibitor which potently elevates ZMP and has anti-tumor activity in murine models” (Scientific Reports, 2018).

What was measured:
Assay in all cases: CEREP protein kinase assay
Type in all cases: biochemical
AKT1 = biological target: T1, AKT1 (Homo sapiens, UniProt P31749)
T1 construct: purchased CEREP Panlabs (Eurofins)

AMPKA = test system: AMPKA
EPHB2 = biological target: T2, EPHB2 (Homo sapiens, UniProt P29323)
T2 construct: purchased CEREP Panlabs (Eurofins)
T2 sequence (P29323 19-1055): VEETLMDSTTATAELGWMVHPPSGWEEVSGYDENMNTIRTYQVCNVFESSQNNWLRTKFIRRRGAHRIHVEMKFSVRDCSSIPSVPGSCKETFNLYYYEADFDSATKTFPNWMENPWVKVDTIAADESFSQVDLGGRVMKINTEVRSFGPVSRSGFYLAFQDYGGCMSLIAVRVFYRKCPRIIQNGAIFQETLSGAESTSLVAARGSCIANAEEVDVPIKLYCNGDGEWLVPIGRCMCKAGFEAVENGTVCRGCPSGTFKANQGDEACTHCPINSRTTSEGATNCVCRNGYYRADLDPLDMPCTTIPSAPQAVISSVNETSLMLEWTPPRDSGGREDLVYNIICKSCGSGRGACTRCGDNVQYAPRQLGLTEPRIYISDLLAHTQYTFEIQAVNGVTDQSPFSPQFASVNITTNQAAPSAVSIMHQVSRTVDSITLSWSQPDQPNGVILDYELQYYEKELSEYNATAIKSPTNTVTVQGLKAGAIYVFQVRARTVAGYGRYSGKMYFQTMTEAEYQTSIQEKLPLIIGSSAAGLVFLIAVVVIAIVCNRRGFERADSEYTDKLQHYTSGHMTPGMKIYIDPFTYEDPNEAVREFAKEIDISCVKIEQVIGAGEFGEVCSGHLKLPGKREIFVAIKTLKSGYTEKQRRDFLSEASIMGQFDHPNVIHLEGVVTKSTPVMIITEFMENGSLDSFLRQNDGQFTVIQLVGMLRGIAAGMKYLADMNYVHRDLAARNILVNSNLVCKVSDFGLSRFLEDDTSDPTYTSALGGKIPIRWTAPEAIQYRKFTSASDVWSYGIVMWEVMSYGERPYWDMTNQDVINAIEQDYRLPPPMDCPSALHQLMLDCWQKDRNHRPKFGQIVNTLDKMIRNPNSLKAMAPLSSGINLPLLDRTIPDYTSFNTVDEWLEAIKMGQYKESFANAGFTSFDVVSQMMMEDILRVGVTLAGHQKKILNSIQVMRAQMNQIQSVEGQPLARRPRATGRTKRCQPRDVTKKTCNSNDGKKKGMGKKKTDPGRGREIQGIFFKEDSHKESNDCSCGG

ERK1 = biological target: T3, ERK1 (Homo sapiens, UniProt P27361)
T3 construct: purchased CEREP Panlabs (Eurofins)

FGFR3 = biological target: T4, FGFR3 (Homo sapiens, UniProt P22607)
T4 construct: purchased CEREP Panlabs (Eurofins)

TAK1 = biological target: T5, TAK1 (Homo sapiens, UniProt O43318)
T5 construct: purchased CEREP Panlabs (Eurofins)
T5 sequence (O43318 1-303 limits assumed): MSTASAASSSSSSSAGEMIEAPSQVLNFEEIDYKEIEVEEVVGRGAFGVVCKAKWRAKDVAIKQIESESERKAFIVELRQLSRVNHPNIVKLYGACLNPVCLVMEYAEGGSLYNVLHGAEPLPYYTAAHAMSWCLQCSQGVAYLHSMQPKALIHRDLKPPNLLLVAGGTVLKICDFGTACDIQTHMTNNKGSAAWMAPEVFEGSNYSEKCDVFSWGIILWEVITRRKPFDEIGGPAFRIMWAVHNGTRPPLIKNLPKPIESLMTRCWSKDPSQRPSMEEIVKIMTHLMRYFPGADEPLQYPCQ
T5 sequence (Q15750 437-504 partner limits assumed): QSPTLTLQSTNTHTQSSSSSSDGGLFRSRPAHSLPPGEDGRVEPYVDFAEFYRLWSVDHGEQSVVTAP

TNK1 = biological target: T6, TNK1 (Homo sapiens, UniProt Q13470)
T6 construct: purchased CEREP Panlabs (Eurofins)
T6 sequence (Q13470 1-666): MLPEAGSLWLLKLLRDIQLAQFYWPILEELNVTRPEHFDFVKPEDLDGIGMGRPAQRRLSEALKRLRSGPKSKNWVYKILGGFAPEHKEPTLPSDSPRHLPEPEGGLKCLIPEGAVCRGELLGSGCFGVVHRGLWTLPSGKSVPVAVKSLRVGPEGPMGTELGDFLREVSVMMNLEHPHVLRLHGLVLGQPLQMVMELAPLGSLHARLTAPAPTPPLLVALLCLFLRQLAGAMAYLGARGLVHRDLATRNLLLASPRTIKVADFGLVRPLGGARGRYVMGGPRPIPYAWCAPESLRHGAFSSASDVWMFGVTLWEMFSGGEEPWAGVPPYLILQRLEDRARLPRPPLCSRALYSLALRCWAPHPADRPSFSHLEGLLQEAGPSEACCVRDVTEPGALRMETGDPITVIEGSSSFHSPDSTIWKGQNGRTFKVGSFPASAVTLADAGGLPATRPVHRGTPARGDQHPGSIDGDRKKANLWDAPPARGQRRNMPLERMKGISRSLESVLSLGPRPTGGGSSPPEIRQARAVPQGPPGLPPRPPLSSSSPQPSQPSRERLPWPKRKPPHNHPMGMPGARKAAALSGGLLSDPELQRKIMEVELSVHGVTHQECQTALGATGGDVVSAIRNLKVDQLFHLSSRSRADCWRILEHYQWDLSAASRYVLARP

T1 sequence (P31749 whole entry): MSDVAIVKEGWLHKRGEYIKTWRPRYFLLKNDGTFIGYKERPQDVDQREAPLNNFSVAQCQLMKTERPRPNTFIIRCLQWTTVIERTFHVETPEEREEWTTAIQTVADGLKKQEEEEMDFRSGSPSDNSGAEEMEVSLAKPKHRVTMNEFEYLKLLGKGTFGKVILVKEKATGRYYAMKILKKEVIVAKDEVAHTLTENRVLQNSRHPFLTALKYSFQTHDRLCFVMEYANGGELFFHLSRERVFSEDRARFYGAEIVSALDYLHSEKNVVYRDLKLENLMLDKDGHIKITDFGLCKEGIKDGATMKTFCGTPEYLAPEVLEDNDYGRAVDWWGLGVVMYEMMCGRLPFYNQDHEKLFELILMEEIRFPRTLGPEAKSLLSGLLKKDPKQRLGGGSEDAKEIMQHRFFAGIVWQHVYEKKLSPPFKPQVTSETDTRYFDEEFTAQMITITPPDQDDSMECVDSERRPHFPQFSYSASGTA
T3 sequence (P27361 whole entry): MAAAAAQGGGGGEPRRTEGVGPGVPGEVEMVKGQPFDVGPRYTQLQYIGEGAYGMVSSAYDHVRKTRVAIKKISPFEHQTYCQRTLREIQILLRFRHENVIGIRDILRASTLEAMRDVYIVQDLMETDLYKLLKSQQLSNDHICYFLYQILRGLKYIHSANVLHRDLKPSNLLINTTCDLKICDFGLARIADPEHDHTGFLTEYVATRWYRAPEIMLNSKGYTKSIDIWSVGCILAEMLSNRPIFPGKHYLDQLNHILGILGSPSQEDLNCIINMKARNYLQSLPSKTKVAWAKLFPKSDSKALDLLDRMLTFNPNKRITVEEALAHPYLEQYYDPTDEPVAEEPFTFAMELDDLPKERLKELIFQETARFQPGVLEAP
T4 sequence (P22607 23-806): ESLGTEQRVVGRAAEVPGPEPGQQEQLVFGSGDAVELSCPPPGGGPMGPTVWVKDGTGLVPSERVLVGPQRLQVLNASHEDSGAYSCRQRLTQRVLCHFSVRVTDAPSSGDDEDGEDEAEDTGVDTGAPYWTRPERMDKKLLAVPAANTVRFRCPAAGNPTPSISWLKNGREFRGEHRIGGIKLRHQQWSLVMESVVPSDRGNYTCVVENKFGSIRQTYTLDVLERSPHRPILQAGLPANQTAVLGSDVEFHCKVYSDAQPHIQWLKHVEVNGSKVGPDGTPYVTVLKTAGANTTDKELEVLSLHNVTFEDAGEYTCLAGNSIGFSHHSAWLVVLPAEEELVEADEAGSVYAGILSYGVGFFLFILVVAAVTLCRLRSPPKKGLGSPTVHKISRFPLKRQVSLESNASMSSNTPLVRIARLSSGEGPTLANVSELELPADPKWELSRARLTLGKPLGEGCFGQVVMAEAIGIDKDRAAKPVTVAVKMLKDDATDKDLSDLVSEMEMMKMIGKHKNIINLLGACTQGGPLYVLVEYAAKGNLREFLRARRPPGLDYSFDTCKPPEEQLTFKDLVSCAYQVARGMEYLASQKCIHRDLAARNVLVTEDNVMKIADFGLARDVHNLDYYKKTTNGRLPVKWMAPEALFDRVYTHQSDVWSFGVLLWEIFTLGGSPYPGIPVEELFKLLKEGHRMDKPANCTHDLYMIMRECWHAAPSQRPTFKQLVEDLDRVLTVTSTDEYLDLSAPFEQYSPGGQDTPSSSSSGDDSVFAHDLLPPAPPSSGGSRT

Which inhibition at 0.2 µM (AKT1; @ 0.2 uM) does the source give for `O=c1[nH]ccc2cc(F)c(NS(=O)(=O)c3ccc(N4CC[C@@H](O)C4)s3)cc12` [LSN3213128, N-(6-Fluoro-1-oxo-1,2-dihydroisoquinolin-7-yl)-5-[(3R)-3-hydroxypyrrolidin-1-yl]thiophene-2-sulfonamide] here?
Its inhibition at 0.2 µM is -1.76%.

And the inhibition at 2 µM (AKT1; @ 2 uM)?
The inhibition at 2 µM was 5.52%.

What about the inhibition at 20 µM (AKT1; @ 20 uM) of the same compound?
Its inhibition at 20 µM is -6.9%.

And the “% Inhibition” value (AMPKA; @ 0.2 uM)?
The value was -3.69 (26.6, n=2) %.

What about the “% Inhibition” value (AMPKA; @ 2 uM) of the same compound?
The value was 9.14 (16.7, n=2) %.

What about the “% Inhibition” value (AMPKA; @ 20 uM) of the same compound?
The value was 9.08 (3.34, n=2) %.

What about the inhibition at 0.2 µM (EPHB2; @ 0.2 uM) of the same compound?
Its inhibition at 0.2 µM is -14.3%.

And the inhibition at 2 µM (EPHB2; @ 2 uM)?
Its inhibition at 2 µM is 8.96%.

What about the inhibition at 20 µM (EPHB2; @ 20 uM) of the same compound?
Its inhibition at 20 µM is 12%.

What about the inhibition at 0.2 µM (ERK1; @ 0.2 uM) of the same compound?
Its inhibition at 0.2 µM is -2.6%.

What about the inhibition at 2 µM (ERK1; @ 2 uM) of the same compound?
The inhibition at 2 µM was 9.15%.

What about the inhibition at 20 µM (ERK1; @ 20 uM) of the same compound?
Its inhibition at 20 µM is 53.7%.

What about the inhibition at 0.2 µM (FGFR3; @ 0.2 uM) of the same compound?
Its inhibition at 0.2 µM is 3.62%.

What about the inhibition at 2 µM (FGFR3; @ 2 uM) of the same compound?
Its inhibition at 2 µM is 13.2%.

And the inhibition at 20 µM (FGFR3; @ 20 uM)?
The inhibition at 20 µM was 47%.

And the inhibition at 0.2 µM (TAK1; @ 0.2 uM)?
The inhibition at 0.2 µM was -0.355%.

And the inhibition at 2 µM (TAK1; @ 2 uM)?
Its inhibition at 2 µM is 4.6%.

What about the inhibition at 20 µM (TAK1; @ 20 uM) of the same compound?
Its inhibition at 20 µM is 19.3%.

What about the inhibition at 0.2 µM (TNK1; @ 0.2 uM) of the same compound?
Its inhibition at 0.2 µM is -11.5%.

And the inhibition at 2 µM (TNK1; @ 2 uM)?
The inhibition at 2 µM was -5.26%.

And the inhibition at 20 µM (TNK1; @ 20 uM)?
The inhibition at 20 µM was -3.7%.
